According to patent US10221129B2, “Inhibitors of human immunodeficiency virus replication” (ViiV HEALTHCARE UK (NO.5) LIMITED, priority 2015, dated 2019):
Read-outs that look alike come from different tables or passages of the source.

Tests used:
[1] = test system: recombinant NL4-3 virus (nef section replaced with Renilla luciferase gene) in MT-2 cells; test: HIV cell culture assay (antiviral activity, luciferase readout); format: cell-based
Method: HIV cell culture assay—MT-2 cells, 293T cells and the proviral DNA clone of NL4-3 virus were obtained from the NIH AIDS Research and Reference Reagent Program. MT-2 cells were propagated in RPMI 1640 media supplemented with 10% heat inactivated fetal bovine serum (FBS), 100 jag/ml penicillin G and up to 100 units/mL streptomycin. The 293T cells were propagated in DMEM media supplemented with 10% heat inactivated FBS, 100 μg/mL penicillin G and 100 μg/mL streptomycin. A recombinant NL4-3 proviral clone, in which a section of the nef gene was replaced with the Renilla luciferase gene, was used to make the reference virus used in these studies. The recombinant virus was prepared through transfection of the recombinant NL4-3 proviral clone into 293T cells using Transit-293 Transfection Reagent from Mirus Bio LLC (Madison, Wis.). Supernatant was harvested after 2-3 days and the amount of virus present was titered in MT-2 cells using luciferase enzyme activity as a marker by measuring luciferase enzyme activity. Luciferase was quantitated using the EnduRen Live Cell Substrate from Promega (Madison, Wis.). Antiviral activities of compounds toward the recombinant virus were quantified by measuring luciferase activity in MT-2 cells infected for 4-5 days with the recombinant virus in the presence of serial dilutions of the compound.
(Johnson V A, Byington R T. Infectivity Assay. In Techniques in HIV Research. ed. Aldovini A, Walker B D. 71-76. New York: Stockton Press. 1990).

[2] = Compound cytotoxicity, XTT-based colorimetric assay; format: cell-based; settings: human, uninfected MT2 cells, day 4, XTT
Method: Compound cytotoxicity and the corresponding CC50 values were determined using the same protocol as described in the antiviral assay except that uninfected cells were used. Cytotoxicity was assessed on day 4 in uninfected MT2 cells by using a XTT (2,3-bis[2-Methoxy-4-nitro-5-sulfophenyl]-2H-tetrazolium-5-carboxyanilide inner salt)-based colorimetric assay (Sigma-Aldrich, St Louis, Mo.).

[3] = Renilla, NL43, MT-2 cells infected for 4-5 days with recombinant NL4-3 Renilla luciferase virus

| Structure (SMILES) | EC50 [1, 3] [nM] | CC50 at 4 days [2] [nM] | EC50 ([1]; MT-2 cells infected for 4-5 days with recombinant NL4-3 Renilla luciferase virus, read-out: EC50) [nM] |
| --- | --- | --- | --- |
| COc1ccc(N(C)C(=O)[C@H](Cc2ccccc2)NC(=O)NS(=O)(=O)Nc2cccc(OC)c2)cc1 [JB-20] | 100 | > 100000 | – |
| CN(C(=O)[C@H](Cc1cc(F)cc(F)c1)NC(=O)NS(=O)(=O)N1CCc2cccnc21)c1ccc2c(c1)ncn2C [GW-6] | 630 | > 25000 | – |
| COc1ccc(N(C)C(=O)[C@H](Cc2ccccc2)NC(=O)NS(=O)(=O)Nc2ccc(C)c(C)c2)cc1 [CA-13] | 60 | > 100000 | – |
| Cc1cc(N(C)C(=O)[C@H](Cc2ccccc2)NC(=O)NS(=O)(=O)N2CCc3cccnc32)ccc1Cl [BB-6] | 340 | > 33300 | – |
| CN(C(=O)[C@H](Cc1cc(F)cc(F)c1)NC(=O)NS(=O)(=O)N1CCc2cccnc21)c1ccc2scnc2c1 [ZY-1] | 10 | > 100000 | – |
| CN(C(=O)[C@H](Cc1cc(F)cc(F)c1)NC(=O)NS(=O)(=O)N1CCc2cccnc21)c1ccc2c(cnn2C)c1 [GW-8] | 100 | > 25000 | – |
| COc1ccc(N(C)C(=O)[C@H](Cc2ccccc2)NC(=O)NS(=O)(=O)Nc2ccc(F)cc2)cc1 [JB-50] | 100 | > 100000 | – |
| COc1ccc(N(C)C(=O)[C@H](Cc2ccccc2)NC(=O)NS(=O)(=O)N(C)c2ccccc2)cc1 [JB-3] | 130 | > 100000 | – |
| CN(C(=O)[C@H](Cc1cc(F)cc(F)c1)NC(=O)NS(=O)(=O)N1CCOCC1)c1ccc2scnc2c1 [VN-23] | 170 | > 100000 | – |
| COc1ccc(N(C)C(=O)[C@H](Cc2ccccc2)NC(=O)NS(=O)(=O)Nc2ccc(-c3ccccc3)cc2)cc1 [CA-29] | 3260 | > 33300 | – |
| COc1ccc(N(C)C(=O)[C@H](Cc2ccccc2)NC(=O)NS(=O)(=O)NCc2ccccc2F)cc1 [JB-38] | 1600 | > 100000 | – |
| COc1ccc(N(C)C(=O)[C@H](Cc2ccccc2)NC(=O)NS(=O)(=O)N2Cc3ccncc3C2)cc1 [JB-44] | 1750 | > 100000 | – |
| COc1ccc(N(C)C(=O)[C@H](Cc2ccccc2)NC(=O)NS(=O)(=O)NCC(=O)N2CCOCC2)cc1 [CA-59] | 6140 | > 100000 | – |
| CN(C(=O)[C@H](Cc1cc(F)cc(F)c1)NC(=O)NS(=O)(=O)N1CCCc2cccnc21)c1ccc2scnc2c1 [VN-9] | 10 | > 100000 | – |
| CN1CCN(S(=O)(=O)NC(=O)N[C@@H](Cc2cc(F)cc(F)c2)C(=O)N(C)c2ccc3scnc3c2)CC1 [CA-122] | 280 | > 33300 | – |
| CN(C(=O)[C@H](Cc1cc(F)cc(F)c1)NC(=O)NS(=O)(=O)N1CC(C)(O)C1)c1ccc2scnc2c1 [CA-129] | 140 | > 100000 | – |
| COc1ccc(N(C)C(=O)[C@H](Cc2ccccc2)NC(=O)NS(=O)(=O)Nc2cccc(Cl)c2)cc1 [JB-19] | 50 | > 100000 | – |
| COc1ccc(N(C)C(=O)[C@H](Cc2ccccc2)NC(=O)NS(=O)(=O)Nc2cccc(-c3cnco3)c2)cc1 [CA-27] | 310 | > 100000 | – |
| CCN(C)S(=O)(=O)NC(=O)N[C@@H](Cc1cc(F)cc(F)c1)C(=O)N(C)c1ccc2scnc2c1 [CA-154] | 30 | > 50000 | – |
| CN(C(=O)[C@H](Cc1cc(F)cc(F)c1)NC(=O)NS(=O)(=O)N1CCc2cccc(F)c21)c1ccc2scnc2c1 [ZY-15] | 30 | > 33300 | – |
| COc1ccc(N(C)C(=O)[C@H](Cc2ccccc2)NC(=O)NS(=O)(=O)n2ccc3ccncc32)cc1 [CA-61] | 400 | > 100000 | – |
| COc1ccc(N(C)C(=O)[C@H](Cc2ccccc2)NC(=O)NS(=O)(=O)n2c(C)cc3ccncc32)cc1 [CA-62] | 3690 | > 100000 | – |
| COc1ccc(N(C)C(=O)[C@H](Cc2ccccc2)NC(=O)NS(=O)(=O)N(C)CC(=O)N(C)C)cc1 [JB-30] | 1950 | > 100000 | – |
| CC(C)CN(C)S(=O)(=O)NC(=O)N[C@@H](Cc1cc(F)cc(F)c1)C(=O)N(C)c1ccc2scnc2c1 [CA-140] | 40 | > 100000 | – |
| CCCN(C)S(=O)(=O)NC(=O)N[C@@H](Cc1cc(F)cc(F)c1)C(=O)N(C)c1ccc2scnc2c1 [CA-141] | 40 | > 100000 | – |
| CN(C(=O)[C@H](Cc1cc(F)cc(F)c1)NC(=O)NS(=O)(=O)N1CCCC1=O)c1ccc2scnc2c1 [BB-33] | 450 | > 100000 | – |

| Structure (SMILES) | EC50 [1, 3] [nM] | CC50 at 4 days [2] [nM] | EC50 ([1]; MT-2 cells infected for 4-5 days with recombinant NL4-3 Renilla luciferase virus, read-out: EC50) [nM] |
| --- | --- | --- | --- |
| CN(C(=O)[C@H](Cc1cc(F)cc(F)c1)NC(=O)NS(=O)(=O)N(C)c1ccccc1F)c1ccc2scnc2c1 [CA-117] | 120 | > 100000 | – |
| CN(C(=O)[C@H](Cc1cc(F)cc(F)c1)NC(=O)NS(=O)(=O)NCCc1ccccc1)c1ccc2scnc2c1 [CA-158] | 340 | > 100000 | – |
| Cc1ccc(N(C)C(=O)[C@H](Cc2cc(F)cc(F)c2)NC(=O)NS(=O)(=O)N2CCc3cccnc32)nc1 [GW-4] | 220 | > 100000 | – |
| COc1ccc(N(C)C(=O)[C@H](Cc2ccccc2)NC(=O)NS(=O)(=O)Nc2ccc(OCc3ccccc3)cc2)cc1 [CA-32] | 980 | > 33300 | – |
| CN(C(=O)[C@H](Cc1cc(F)cc(F)c1)NC(=O)NS(=O)(=O)N1CCc2cccnc21)c1ccc(C(F)(F)F)nc1 [GW-9] | 180 | 35100 | – |
| COc1ccc(N(C)C(=O)[C@H](Cc2ccccc2)NC(=O)NS(=O)(=O)n2c3ccccc3c3ccccc32)cc1 [JB-9] | 440 | 74200 | – |
| COc1ccc(N(C)C(=O)[C@H](Cc2ccccc2)NC(=O)NS(=O)(=O)Nc2ccc(NC(=O)N(C)C)cc2)cc1 [JB-52] | 5940 | > 100000 | – |
| COc1ccc(N(C)C(=O)[C@H](Cc2ccccc2)NC(=O)NS(=O)(=O)NCc2nccn2C)cc1 [JB-63] | 6500 | > 100000 | – |
| CCOc1ccc(N(CC)C(=O)[C@H](Cc2ccccc2)NC(=O)NS(=O)(=O)N2CCc3cc(Cl)cc(Cl)c32)cc1 [JB-76] | 8750 | > 33300 | – |
| Cc1cc(F)cc(N(C)C(=O)[C@H](Cc2cc(F)cc(F)c2)NC(=O)NS(=O)(=O)N2CCc3cccnc32)c1 [BB-13] | 270 | 89500 | – |
| CCc1ccc(N(C)C(=O)[C@H](Cc2cc(F)cc(F)c2)NC(=O)NS(=O)(=O)N2CCc3cccnc32)cc1 [BB-2] | 20 | 96000 | – |
| COc1ccc(N(C)C(=O)[C@H](Cc2ccccc2)NC(=O)NS(=O)(=O)Nc2ccc3ncsc3c2)cc1 [CA-24] | 60 | > 100000 | – |
| COc1ccc2c(n1)N(S(=O)(=O)NC(=O)N[C@@H](Cc1cc(F)cc(F)c1)C(=O)N(C)c1ccc3scnc3c1)CC2 [AW-2] | 10 | > 100000 | – |
| COc1ccccc1NS(=O)(=O)NC(=O)N[C@@H](Cc1ccccc1)C(=O)N(C)c1ccc2ncccc2c1 [JB-12] | 170 | 57700 | – |
| COc1ccc(N(C)C(=O)[C@H](Cc2ccccc2)NC(=O)NS(=O)(=O)Nc2ccc(Oc3ccccc3)cc2)cc1 [CA-18] | 350 | > 33300 | – |
| CN(C(=O)[C@H](Cc1cc(F)cc(F)c1)NC(=O)NS(N)(=O)=O)c1ccc2scnc2c1 [VN-25] | 150 | 79600 | – |
| CN(C(=O)[C@H](Cc1cc(F)cc(F)c1)NC(=O)NS(=O)(=O)N1CCc2nccnc21)c1ccc2scnc2c1 [ZY-22] | 520 | > 100000 | – |
| COc1ccc(NS(=O)(=O)NC(=O)N[C@@H](Cc2ccccc2)C(=O)N(C)c2ccc(OC)cc2)cc1 [JB-27] | 150 | > 100000 | – |
| CN(C)C(=O)[C@@H]1CCCN1S(=O)(=O)NC(=O)N[C@@H](Cc1cc(F)cc(F)c1)C(=O)N(C)c1ccc2scnc2c1 [BB-22] | 380 | > 100000 | – |
| COc1ccc(N(C)C(=O)[C@H](Cc2ccccc2)NC(=O)NS(=O)(=O)NCc2nccs2)cc1 [JB-43] | 760 | > 100000 | – |
| CCOc1ccc(NS(=O)(=O)NC(=O)N[C@@H](Cc2ccccc2)C(=O)N(C)c2ccc(OC)cc2)cc1 [JB-81] | 260 | > 100000 | – |
| COc1ccc(N(C)C(=O)[C@H](Cc2ccccc2)NC(=O)NS(=O)(=O)Nc2ccccc2NC(C)=O)cc1 [CA-42] | 4120 | > 100000 | – |
| CCOc1ccc(N(CC)C(=O)[C@H](Cc2ccccc2)NC(=O)NS(=O)(=O)N2CCc3cc(C)ccc32)cc1 [JB-70] | 100 | > 33300 | – |
| CN(C(=O)[C@H](Cc1cc(F)cc(F)c1)NC(=O)NS(=O)(=O)N1CCc2cccnc21)c1ccc(C2CC2)cc1 [GW-10] | 30 | 91000 | – |
| COc1ccc(N(C)C(=O)[C@H](Cc2ccccc2)NC(=O)NS(=O)(=O)NCc2n[nH]c3ccccc23)cc1 [JB-67] | – | – | 180 |
| CC1CN(S(=O)(=O)NC(=O)N[C@@H](Cc2cc(F)cc(F)c2)C(=O)N(C)c2ccc3scnc3c2)c2ncccc21 (single isomer, unassigned) [VN-14] | – | > 100000 | – |
